Source: patent US20220195066A1, “ANTI-CEA IMMUNOCONJUGATES, AND USES THEREOF” (BOLT BIOTHERAPEUTICS, INC., priority 2020, published 2022)

How the values were obtained:
human TLR8 = biological target: T1, human TLR8 (Homo sapiens, UniProt Q9NR97); assay: HEK Reporter Assay, HEK293 NFKB reporter cells expressing human TLR8; assay type: cell-based; conditions: read-out: HEK293 hTLR8 EC50
T1 construct: host or cells: HEK293 NF-kB reporter cells
T1 sequence (Q9NR97 27-1041): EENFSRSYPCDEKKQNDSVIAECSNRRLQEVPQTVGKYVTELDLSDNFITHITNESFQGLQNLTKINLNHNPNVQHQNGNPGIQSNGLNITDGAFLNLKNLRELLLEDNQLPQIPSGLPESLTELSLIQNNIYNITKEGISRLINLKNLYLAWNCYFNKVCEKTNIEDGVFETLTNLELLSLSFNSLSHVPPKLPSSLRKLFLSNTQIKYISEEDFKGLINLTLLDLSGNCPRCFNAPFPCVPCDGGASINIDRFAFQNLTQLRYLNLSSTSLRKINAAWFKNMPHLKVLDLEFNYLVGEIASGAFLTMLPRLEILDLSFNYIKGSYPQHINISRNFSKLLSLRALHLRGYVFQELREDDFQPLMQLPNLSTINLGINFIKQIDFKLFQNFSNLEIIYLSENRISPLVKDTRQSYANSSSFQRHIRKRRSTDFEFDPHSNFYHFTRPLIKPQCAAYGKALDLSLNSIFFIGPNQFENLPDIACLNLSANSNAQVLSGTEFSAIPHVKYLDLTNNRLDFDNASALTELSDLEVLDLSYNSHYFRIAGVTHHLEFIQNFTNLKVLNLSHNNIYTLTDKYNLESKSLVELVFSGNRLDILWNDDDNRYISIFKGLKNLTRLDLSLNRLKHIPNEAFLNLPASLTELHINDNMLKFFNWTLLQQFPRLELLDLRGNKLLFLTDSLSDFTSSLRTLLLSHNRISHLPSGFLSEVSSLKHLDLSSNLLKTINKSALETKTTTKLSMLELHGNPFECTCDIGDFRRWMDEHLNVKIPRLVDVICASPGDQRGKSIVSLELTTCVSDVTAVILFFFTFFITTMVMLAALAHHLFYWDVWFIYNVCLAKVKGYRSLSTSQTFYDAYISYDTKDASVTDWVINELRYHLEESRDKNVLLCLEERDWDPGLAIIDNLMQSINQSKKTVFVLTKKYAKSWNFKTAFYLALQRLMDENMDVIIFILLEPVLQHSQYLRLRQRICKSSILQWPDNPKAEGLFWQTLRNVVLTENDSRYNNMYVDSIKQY
Experimental: (§1) Each compound was synthesized, purified, and characterized by mass spectrometry and shown to have the mass indicated. Additional experimental procedures are found in the Examples. Activity against Human Embryonic Kidney (HEK) 293 NFKB reporter cells expressing human TLR7 or human TLR8 was measured according to Example 202.
(§2) Human Embryonic Kidney (HEK293) reporter cells expressing human TLR7 or human TLR8 (InvivoGen, San Diego Calif.), were used with vendor protocols for cellular propagation and experimentation. Briefly, cells were grown to 80-85% confluence at 5% CO2 in DMEM supplemented with 10% FBS, ZEOCIN™, and Blasticidin. Cells were then seeded in 96-well flat plates at 4×10^4 cells/well with substrate containing HEK detection medium and immunostimulatory molecules.

human TLR7 = biological target: T2, human TLR7 (Homo sapiens, UniProt Q9NYK1); assay: HEK Reporter Assay, HEK293 NFKB reporter cells expressing human TLR7; assay type: cell-based; conditions: read-out: HEK293 hTLR7 EC50
T2 construct: host or cells: HEK293 NF-kB reporter cells
T2 sequence (Q9NYK1 27-1049): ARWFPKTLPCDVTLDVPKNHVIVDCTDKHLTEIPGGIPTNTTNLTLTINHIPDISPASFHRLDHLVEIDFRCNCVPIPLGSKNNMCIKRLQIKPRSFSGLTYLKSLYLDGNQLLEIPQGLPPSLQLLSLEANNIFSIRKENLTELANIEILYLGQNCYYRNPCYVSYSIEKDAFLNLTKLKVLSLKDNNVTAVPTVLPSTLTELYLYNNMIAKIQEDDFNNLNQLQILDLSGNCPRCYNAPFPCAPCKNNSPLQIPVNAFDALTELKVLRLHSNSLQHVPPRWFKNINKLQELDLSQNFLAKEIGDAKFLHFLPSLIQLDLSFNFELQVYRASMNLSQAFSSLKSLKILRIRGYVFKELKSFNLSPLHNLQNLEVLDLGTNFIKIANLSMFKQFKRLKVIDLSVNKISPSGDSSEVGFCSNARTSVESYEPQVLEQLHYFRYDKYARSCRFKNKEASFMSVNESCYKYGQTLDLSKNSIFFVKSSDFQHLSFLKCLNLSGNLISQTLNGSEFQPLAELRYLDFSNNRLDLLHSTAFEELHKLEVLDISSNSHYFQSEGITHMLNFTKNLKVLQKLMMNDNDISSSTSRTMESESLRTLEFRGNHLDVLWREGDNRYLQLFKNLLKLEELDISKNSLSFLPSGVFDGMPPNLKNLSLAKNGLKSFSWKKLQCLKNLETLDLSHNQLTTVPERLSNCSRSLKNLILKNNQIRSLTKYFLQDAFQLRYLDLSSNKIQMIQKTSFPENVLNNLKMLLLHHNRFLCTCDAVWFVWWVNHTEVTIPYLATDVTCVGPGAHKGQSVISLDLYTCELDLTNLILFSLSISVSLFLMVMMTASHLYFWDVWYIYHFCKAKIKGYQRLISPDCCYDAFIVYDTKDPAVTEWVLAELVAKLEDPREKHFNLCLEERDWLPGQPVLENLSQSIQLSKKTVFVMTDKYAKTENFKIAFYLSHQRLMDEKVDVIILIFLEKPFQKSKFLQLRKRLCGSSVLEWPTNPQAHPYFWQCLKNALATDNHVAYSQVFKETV
Experimental: as §1, §2

`CCCN(OCC)C(=O)C1=Cc2ccc(-c3cnc(C#N)nc3)cc2N=C(N)C1` [HxBz-1] gave an EC50 (human TLR8) of 163 nM and an EC50 (human TLR7) of 2540 nM.
Compound `CCCN(OCC)C(=O)C1=Cc2ccc(-c3cccnn3)cc2N=C(N)C1` [HxBz-2] has an EC50 (human TLR8) of 276 nM and an EC50 (human TLR7) of 2240 nM.
In the case of `CCCN(OCC)C(=O)C1=Cc2ccc(-c3cnc(N4CCNCC4)nc3)cc2N=C(N)C1` [HxBz-3, 2-amino-N-ethoxy-8-(2-piperazin-1-ylpyrimidin-5-yl)-N-propyl-3H-1-benzazepine-4-carboxamide], the EC50 (human TLR8) is reported as 43 nM and the EC50 (human TLR7) is reported as 562 nM.
`CCCN(OCC)C(=O)C1=Cc2ccc(-c3cnc(N4CCN(C(=O)OC(C)(C)C)CC4)nc3)cc2N=C(N)C1` [HxBz-4, tert-butyl 4-[5-[2-amino-4-[ethoxy (propyl)carbamoyl]-3H-1-benzazepin-8-yl]pyrimidin-2-yl]piperazine-1-carboxylate] showed an EC50 (human TLR8) of 350 nM and an EC50 (human TLR7) of 3260 nM.
`CCCN(OCC)C(=O)C1=Cc2ccc(-c3cnc(CN)nc3)cc2N=C(N)C1` [HxBz-5, 2-amino-8-[2-(aminomethyl)pyrimidin-5-yl]-N-ethoxy-N-propyl-3H-1-benzazepine-4-carboxamide] showed an EC50 (human TLR8) of 17 nM and an EC50 (human TLR7) of 525 nM.
Compound `CCCN(OCC)C(=O)C1=Cc2ccc(-c3ccc(C(=O)OC)nn3)cc2N=C(N)C1` [HxBz-6] has an EC50 (human TLR8) of 339 nM and an EC50 (human TLR7) of 2660 nM.
In the case of `CCCN(OCC)C(=O)C1=Cc2ccc(-c3cncc(S(=O)(=O)N4CC(CN)C4)c3)cc2N=C(N)C1` [HxBz-7, 2-amino-8-[5-[3-(aminomethyl)azetidin-1-yl]sulfonyl-3-pyridyl]-N-ethoxy-N-propyl-3H-1-benzazepine-4-carboxamide], the EC50 (human TLR8) is reported as 335 nM and the EC50 (human TLR7) is reported as 3630 nM.
For `CCCN(OCC)C(=O)C1=Cc2ccc(-c3cnn(S(=O)(=O)N4CC(CN)C4)c3)cc2N=C(N)C1` [HxBz-9], the EC50 (human TLR8) was 397 nM and the EC50 (human TLR7) was 8630 nM.
In the case of `CCCN(OCC)C(=O)C1=Cc2ccc(-c3ncc(CN)cn3)cc2N=C(N)C1` [HxBz-10], the EC50 (human TLR8) is reported as 814 nM.
Work on `CCCN(OCC)C(=O)C1=Cc2ccc(-c3cnc(C(=O)OC)nc3)cc2N=C(N)C1` [HxBz-11, methyl 5-(2-amino-4-(ethoxy(propyl)carbamoyl)-3H-benzo[b]azepin-8-yl)pyrimidine-2-carboxylate] yielded an EC50 (human TLR8) of 161 nM and an EC50 (human TLR7) of 4070 nM.
For `CCCN(OCC)C(=O)C1=Cc2ccc(-c3cnc(C(=O)N4CCC[C@H]4C(=O)OC)nc3)cc2N=C(N)C1` [HxBz-12], the EC50 (human TLR8) was 6 nM and the EC50 (human TLR7) was 159 nM.
With `CCCN(CCCNC(=O)OC1CCC1)C(=O)C1=Cc2ccc(-c3cnc(CN)nc3)cc2N=C(N)C1` [HxBz-13, cyclobutyl N-[3-[[2-amino-8-[2-(aminomethyl)pyrimidin-5-yl]-3H-1-benzazepine-4-carbonyl]-propyl-amino]propyl]carbamate] the EC50 (human TLR8) was 274 nM and the EC50 (human TLR7) was 242 nM.
`CCCN(OCCNC(=O)OC1CCC1)C(=O)C1=Cc2ccc(-c3cnc(CN)nc3)cc2N=C(N)C1` [HxBz-15, cyclobutyl N-[2-[[2-amino-8-[2-(aminomethyl)pyrimidin-5-yl]-3H-1-benzazepine-4-carbonyl]-propyl-amino]oxyethyl]carbamate] showed an EC50 (human TLR8) of 10 nM and an EC50 (human TLR7) of 35 nM.
Compound `CCCN(OCCNC(=O)NC1CCC1)C(=O)C1=Cc2ccc(-c3cnc(CN)nc3)cc2N=C(N)C1` [HxBz-16, 2-amino-8-[2-(aminomethyl)pyrimidin-5-yl]-N-[2-(cyclobutylcarbamoylamino)ethoxy]-N-propyl-3H-1-benzazepine-4-carboxamide] has an EC50 (human TLR8) of 399 nM and an EC50 (human TLR7) of 4600 nM.
In the case of `CCCN(OCC)C(=O)C1=Cc2ccc(N3CCNCC3)cc2N=C(N)C1` [HxBz-18], the EC50 (human TLR8) is reported as 281 nM and the EC50 (human TLR7) is reported as 6310 nM.
`CCCN(OCCNC(=O)N(C)C)C(=O)C1=Cc2ccc(-c3cnc(CN)nc3)cc2N=C(N)C1` [HxBz-20] gave an EC50 (human TLR8) of 3690 nM and an EC50 (human TLR7) of 2940 nM.
`CCCN(OCCO)C(=O)C1=Cc2ccc(-c3cnc(CN)nc3)cc2N=C(N)C1` [HxBz-22, 2-amino-8-[2-(aminomethyl)pyrimidin-5-yl]-N-(2-hydroxyethoxy)-N-propyl-3H-1-benzazepine-4-carboxamide] showed an EC50 (human TLR8) of 1150 nM and an EC50 (human TLR7) of 3920 nM.
Compound `CCCN(OCCNC(=O)N1CCOCC1)C(=O)C1=Cc2ccc(-c3cnc(CN)nc3)cc2N=C(N)C1` [HxBz-23] has an EC50 (human TLR8) of 6180 nM and an EC50 (human TLR7) of 6880 nM.
`CCCN(CC1CNC(=O)O1)C(=O)C1=Cc2ccc(-c3cnc(CN)nc3)cc2N=C(N)C1` (centres unmarked) [HxBz-25] gave an EC50 (human TLR8) of 3160 nM.
For `CCCN(OCCNC(=O)OC(C)C)C(=O)C1=Cc2ccc(-c3cnc(CN)nc3)cc2N=C(N)C1` [HxBz-27, isopropyl N-[2-[[2-amino-8-[2-(aminomethyl)pyrimidin-5-yl]-3H-1-benzazepine-4-carbonyl]-propyl-amino]oxyethyl]carbamate], the EC50 (human TLR8) was 9 nM and the EC50 (human TLR7) was 26 nM.
`CCCN(OCCNC(=O)NCC)C(=O)C1=Cc2ccc(-c3cnc(CN)nc3)cc2N=C(N)C1` [HxBz-28] showed an EC50 (human TLR8) of 2930 nM and an EC50 (human TLR7) of 3770 nM.
`CCCN(CCCNC(=O)OC(C)C)C(=O)C1=Cc2ccc(-c3cnc(CN)nc3)cc2N=C(N)C1` [HxBz-29] was tested, and the EC50 (human TLR8) was 296 nM and the EC50 (human TLR7) was 134 nM.
For `CCCN(OC(C)C)C(=O)C1=Cc2ccc(-c3cnc(CN)nc3)cc2N=C(N)C1` [HxBz-30], the EC50 (human TLR8) was 40 nM and the EC50 (human TLR7) was 393 nM.
`CCCN(OCC(C)C)C(=O)C1=Cc2ccc(-c3cnc(CN)nc3)cc2N=C(N)C1` [HxBz-31] was tested, and the EC50 (human TLR8) was 358 nM and the EC50 (human TLR7) was 763 nM.
In the case of `CCCN(CCCNC(=O)OC1CCC1)C(=O)C1=Cc2ccc(-c3cncc(S(=O)(=O)N4CC(CN)C4)c3)cc2N=C(N)C1` [HxBz-32, cyclobutyl N-[3-[[2-amino-8-[5-[3-(aminomethyl)azetidin-1-yl]sulfonyl-3-pyridyl]-3H-1-benzazepine-4-carbonyl]-propyl-amino]propyl]carbamate], the EC50 (human TLR8) is reported as 1520 nM and the EC50 (human TLR7) is reported as 1280 nM.
`CCCN(CCCNC(=O)OC(C)C)C(=O)C1=Cc2ccc(-c3cncc(S(=O)(=O)N4CC(CN)C4)c3)cc2N=C(N)C1` [HxBz-33] gave an EC50 (human TLR8) of 2880 nM and an EC50 (human TLR7) of 7630 nM.
`CCCN(OCCNC(=O)OC1CCC1)C(=O)C1=Cc2ccc(-c3cncc(S(=O)(=O)N4CC(CN)C4)c3)cc2N=C(N)C1` [HxBz-34] was tested, and the EC50 (human TLR8) was 79 nM and the EC50 (human TLR7) was 322 nM.
`CCCN(OCCO)C(=O)C1=Cc2ccc(-c3cncc(S(=O)(=O)N4CC(CN)C4)c3)cc2N=C(N)C1` [HxBz-43] gave an EC50 (human TLR8) of 6160 nM.
With `CCCN(C(=O)C1=Cc2ccc(-c3cnc(CN)nc3)cc2N=C(N)C1)[C@H]1C[C@H](NC(=O)OC2CCC2)C1` [HxBz-44] the EC50 (human TLR8) was 6350 nM.
`CCCN(OCC1COC(=O)N1)C(=O)C1=Cc2ccc(-c3cnc(CN)nc3)cc2N=C(N)C1` (centres unmarked) [HxBz-46] was tested, and the EC50 (human TLR8) was 3580 nM.
For `CCCN(OCC)C(=O)C1=Cc2ccc(-c3cnnc(CN)c3)cc2N=C(N)C1` [HxBz-48], the EC50 (human TLR8) was 2160 nM.
